What all share (test): inhibition of tumour cell growth, NCI panel, 48 h
The test system of assay [1] is A498.
Assay [2] relates to CAKI-1.
Assay [3] deals with HCT-116.
Assay [4] deals with HCT-15.
Assay [5] has as its system HOP-62.
The subject of assay [6] is HT-29.
The subject of assay [7] is IGROV-1.
The test system of assay [8] is M14.
For assay [9], the system named is Malme-3M.
For assay [10], the system named is NCI-H460.
The subject of assay [11] is NCI-H522.
For assay [12], the system named is OVCAR-5.
The test system of assay [13] is SNB-75.
Assay [14] has as its system SW-620.
The subject of assay [15] is T47D.
Assay [16] relates to UACC-257.
Assay [17] deals with UO-31.

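Five concentrations, 48 hours, 96-well plates. Abbreviation: GI50, concentration required for 50% inhibition of growth.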 Calls of active or inactive are those of the source. Rule as the data show it: active = GI50 up to about 1.1 µM and inactive = higher. Bounds are passed on as bounds.

Turning to `CC[S+]1C2=C(CC(C)(C)CC2=O)[N-]c2ccccc21` (stereo not drawn), the GI50 in assay [1] was > 100 µM (inactive); in assay [2], > 100 µM (inactive); in [3], > 100 µM (inactive); in [4], greater than 100 µM; in assay [5] it was > 100 µM (inactive); in assay [6], > 100 µM (inactive). Besides, the GI50 in assay [7], in assay [8], in assay [9], in assay [10], in assay [11] and in assay [12] was > 100 µM (inactive) in each case. Further, the GI50 in [13], in [14], in [15], in [16] and in [17] was > 100 µM (inactive) throughout.

Consider `Cn1c(O)c(C2=Nc3ccccc3C2=O)c2ccccc21`, for which the GI50 in assay [1] is > 100 µM (inactive); in assay [2], > 100 µM (inactive); in assay [3], > 100 µM (inactive); in [4], greater than 100 µM; in assay [5], > 100 µM (inactive); in assay [6], > 100 µM (inactive). Also, the GI50 in [7], in assay [8], in [9], in assay [10], in assay [11] and in [12] was > 100 µM (inactive) each time. Further, the GI50 in [13], in [14], in [15], in [16] and in [17] was > 100 µM (inactive) throughout.

On to `C[C@]12C[C@@H](OC(=O)[C@]1(C)O)[C@@H]([C@]1(O)CC[C@H]3[C@@H]4C[C@H]5O[C@]56C[C@H]5O[C@H]5C(=O)[C@]6(C)[C@H]4CC[C@@]31C)C2`, for which the GI50 in assay [1] is > 50 µM (inactive); in assay [2], > 50 µM (inactive); in assay [3], > 50 µM (inactive); in assay [4] it was greater than 50 µM; in assay [5], > 50 µM (inactive); in assay [6] it was > 50 µM (inactive). In addition, the GI50 is > 50 µM (inactive) in assay [7]; > 50 µM (inactive) in assay [8]; > 5 µM (inactive) in assay [9]; > 50 µM (inactive) in assay [10]; > 50 µM (inactive) in assay [11]; > 50 µM (inactive) in [12]. Besides, the GI50 was 36 µM (inactive) in assay [13]; > 50 µM (inactive) in [14]; > 50 µM (inactive) in assay [15]; > 50 µM (inactive) in [16]; > 50 µM (inactive) in assay [17].

Take `O=C1C=CC(O)(C#CCO)C=C1`: the GI50 was 22.4 µM (inactive) in assay [1]; 4.02 µM (inactive) in assay [2]; 15.8 µM (inactive) in assay [3]; 2.69 µM in assay [4]; 30.5 µM (inactive) in assay [5]; 14.3 µM (inactive) in [6]. For the same compound, the GI50 in assay [7] was 13 µM (inactive); in assay [8], 19.5 µM (inactive); in [10] it was 21.2 µM (inactive); in assay [11] it was 1.95 µM (inactive); in assay [12] it was 12.1 µM (inactive); in [13], 21.3 µM (inactive). Further, the GI50 in assay [14] was 4.62 µM (inactive); in assay [15], 15.2 µM (inactive); in assay [16], 14.6 µM (inactive); in assay [17], 13.5 µM (inactive).

As to `CC1=NN(c2nc(N)nc(CSCc3nc(N)nc(N(C)C)n3)n2)C(C)(C)C1`, the GI50 was > 100 µM (inactive) in [1]; > 100 µM (inactive) in assay [2]; > 100 µM (inactive) in assay [3]; greater than 100 µM in [4]; > 100 µM (inactive) in assay [5]; > 100 µM (inactive) in assay [6]. The GI50 was > 100 µM (inactive) in [7]; > 100 µM (inactive) in assay [8]; > 100 µM (inactive) in assay [10]; > 100 µM (inactive) in assay [11]; > 100 µM (inactive) in assay [12]; 60.5 µM (inactive) in assay [13]. Moreover, the GI50 in assay [14], in assay [15], in assay [16] and in assay [17] was > 100 µM (inactive) in each case.

In the case of `O=c1c2c(F)c(F)c(F)c(F)c2sc2nccn12`, the GI50 was 19.2 µM (inactive) in assay [1]; 19 µM (inactive) in [2]; 13.9 µM (inactive) in assay [3]; 12.4 µM in assay [4]; 22.4 µM (inactive) in [5]; 16.9 µM (inactive) in [6]. For the same compound, the GI50 in assay [7] was 17.4 µM (inactive); in [8] it was 17.6 µM (inactive); in assay [9] it was 17.3 µM (inactive); in assay [10], 11.2 µM (inactive); in assay [11], 18.9 µM (inactive); in assay [12] it was 20.4 µM (inactive). For the same compound, the GI50 in assay [13] was 22.5 µM (inactive); in assay [14], 17.3 µM (inactive); in assay [15] it was 0.745 µM (active); in [16], 13 µM (inactive).

As to `CCOC(=O)c1c(-c2ccc(Br)cc2)ccn1C`, the GI50 in assay [1] was > 10 µM (inactive); in [2], > 10 µM (inactive); in assay [3] it was > 10 µM (inactive); in assay [4], greater than 10 µM; in assay [5] it was > 10 µM (inactive); in assay [6], > 10 µM (inactive). The GI50 in [7], in [8], in assay [9], in assay [10], in [11] and in assay [12] was > 10 µM (inactive) throughout. In addition, the GI50 in [13], in assay [14], in assay [15] and in [16] was > 10 µM (inactive) in each case.

Turning to `Brc1cccc(C2(CCCC3(c4cccc(Br)n4)OCCO3)OCCO2)n1`, the GI50 in assay [1] is > 100 µM (inactive); in assay [2] it was > 100 µM (inactive); in assay [3], > 100 µM (inactive); in assay [4] it was greater than 100 µM; in [5], > 100 µM (inactive); in assay [7], > 100 µM (inactive). Moreover, the GI50 in assay [8] was > 100 µM (inactive); in assay [10] it was > 100 µM (inactive); in assay [11], 36.6 µM (inactive); in [12], > 100 µM (inactive); in [13], 23.9 µM (inactive); in assay [14] it was > 100 µM (inactive). Besides, the GI50 in [15], in [16] and in assay [17] was > 100 µM (inactive) each time.

On to `COc1cccc(-c2cc(=O)c3cc(N4CCCCC4)ccc3[nH]2)c1`, for which the GI50 was 0.0188 µM (active) in [1]; < 0.01 µM (active) in assay [2]; < 0.01 µM (active) in [3]; less than 0.0167 µM in assay [4]; < 0.0145 µM (active) in [5]; < 0.0129 µM (active) in [6]. Further, the GI50 in assay [7] is 0.0397 µM (active); in [8], < 0.0132 µM (active); in [9], 13.7 µM (inactive); in assay [10] it was < 0.0199 µM (active); in assay [11] it was < 0.0177 µM (active); in assay [13] it was 0.6 µM (active). Besides, the GI50 in assay [14] is < 0.0145 µM (active); in assay [15], > 100 µM (inactive); in [16], > 100 µM (inactive); in assay [17], 7.29 µM (inactive).

Turning to `O=c1c2cc(-c3ccccc3)sc2nc2n1N=C(c1ccccc1)CS2`, the GI50 in assay [1] is 21.4 µM (inactive); in [2], 13.5 µM (inactive); in [3], 34.8 µM (inactive); in assay [4], 84.3 µM; in [5] it was 5.02 µM (inactive); in assay [6] it was > 10 µM (inactive). In addition, the GI50 is > 10 µM (inactive) in assay [7]; 33.3 µM (inactive) in [9]; 25.1 µM (inactive) in [10]; 22.4 µM (inactive) in assay [11]; > 100 µM (inactive) in assay [12]; 19.1 µM (inactive) in [13]. Further, the GI50 in assay [14] is 69.5 µM (inactive); in assay [15], 9.55 µM (inactive); in [16], 24.1 µM (inactive); in assay [17], 62.2 µM (inactive).

With `CSc1nc(-c2ccc(C)cc2)c(C#N)c(=O)[nH]1`, the GI50 in assay [1] is > 100 µM (inactive); in assay [2] it was > 100 µM (inactive); in assay [3], > 100 µM (inactive); in [4], greater than 100 µM; in [5] it was > 100 µM (inactive); in assay [6] it was > 100 µM (inactive). The GI50 in assay [7] was > 100 µM (inactive); in assay [8], > 100 µM (inactive); in [10] it was > 100 µM (inactive); in [11] it was > 100 µM (inactive); in assay [12] it was > 100 µM (inactive); in assay [13] it was 43.7 µM (inactive). The GI50 in assay [14] was > 100 µM (inactive); in assay [15], 40.5 µM (inactive); in assay [16] it was > 100 µM (inactive); in [17] it was 52 µM (inactive).

`COC(=O)C[C@H](COCc1ccccc1)NC(=O)C[C@H](COCc1ccccc1)NC(=O)OC(C)(C)C`: the GI50 was 27.1 µM (inactive) in [1]; 29.7 µM (inactive) in assay [2]; 27.5 µM (inactive) in [3]; 30.7 µM in assay [4]; 21.6 µM (inactive) in assay [5]; 30 µM (inactive) in assay [6]. The GI50 in assay [7] was 33.7 µM (inactive); in assay [8], 32.8 µM (inactive); in [9] it was 36.6 µM (inactive); in [11], 21.2 µM (inactive); in assay [12], 33.8 µM (inactive); in assay [13], 25.1 µM (inactive). In addition, the GI50 in assay [14] was 55.8 µM (inactive); in assay [15], 33.9 µM (inactive); in assay [17] it was 32.5 µM (inactive).

The values above are taken from ChEMBL document CHEMBL1201862, “PubChem BioAssay data set” (2004).
